Assay: xn = mol fraction of the nth substance listed
Conditions: Liquid, Vibrating tube method

COCCOCCOC [2,5,8-trioxanonane] + CCCCO
Conditions | mass density [kg/m3]
323.26 K, 30000 kPa, x2 = 0.7308 | 855.36
323.27 K, 100 kPa, x2 = 0.3116 | 884.02
323.27 K, 5000 kPa, x2 = 0.3116 | 888.39
323.27 K, 40000 kPa, x2 = 0.7308 | 862.01
323.27 K, 60000 kPa, x2 = 0.7308 | 874.24
323.27 K, 80000 kPa, x2 = 0.7308 | 885.1
323.27 K, 100000 kPa, x2 = 0.7308 | 894.94
323.28 K, 1000 kPa, x2 = 0.3116 | 884.84
323.28 K, 10000 kPa, x2 = 0.3116 | 892.57
323.28 K, 20000 kPa, x2 = 0.3116 | 900.61
323.28 K, 30000 kPa, x2 = 0.3116 | 907.85
323.28 K, 40000 kPa, x2 = 0.3116 | 914.76
323.28 K, 80000 kPa, x2 = 0.3116 | 938.32
323.29 K, 100 kPa, x2 = 0.8787 | 809.04
323.29 K, 1000 kPa, x2 = 0.8787 | 809.88
323.29 K, 5000 kPa, x2 = 0.8787 | 813.32
323.29 K, 10000 kPa, x2 = 0.8787 | 817.49
323.29 K, 20000 kPa, x2 = 0.8787 | 825.25
323.29 K, 30000 kPa, x2 = 0.8787 | 832.38
323.29 K, 40000 kPa, x2 = 0.8787 | 838.96
323.29 K, 60000 kPa, x2 = 0.3116 | 927.16
323.29 K, 60000 kPa, x2 = 0.8787 | 850.97
323.29 K, 80000 kPa, x2 = 0.8787 | 861.63
323.29 K, 100000 kPa, x2 = 0.3116 | 948.49
323.29 K, 100010 kPa, x2 = 0.8787 | 871.34
342.49 K, 100 kPa, x2 = 0 | 894.03
342.49 K, 1000 kPa, x2 = 0 | 894.98
342.49 K, 5000 kPa, x2 = 0 | 898.96
342.5 K, 10000 kPa, x2 = 0 | 903.66
342.5 K, 20000 kPa, x2 = 0 | 912.57
342.51 K, 30000 kPa, x2 = 0 | 920.68
342.51 K, 40000 kPa, x2 = 0 | 928.18
342.51 K, 60000 kPa, x2 = 0 | 941.77
342.51 K, 80000 kPa, x2 = 0 | 953.82
342.52 K, 100000 kPa, x2 = 0 | 964.68
342.99 K, 100 kPa, x2 = 0.5469 | 838.63
343 K, 1000 kPa, x2 = 0.5469 | 839.58
343 K, 5000 kPa, x2 = 0.5469 | 843.51
343 K, 10000 kPa, x2 = 0.5469 | 848.2
343.01 K, 20000 kPa, x2 = 0.5469 | 856.98
343.01 K, 30000 kPa, x2 = 0.5469 | 864.93
343.01 K, 40000 kPa, x2 = 0.5469 | 872.29
343.01 K, 60000 kPa, x2 = 0.5469 | 885.57
343.01 K, 80000 kPa, x2 = 0.5469 | 897.36
343.02 K, 100 kPa, x2 = 0.7308 | 814.17
343.02 K, 100000 kPa, x2 = 0.5469 | 907.94
343.03 K, 1000 kPa, x2 = 0.7308 | 815.11
343.03 K, 5000 kPa, x2 = 0.7308 | 819.06
343.03 K, 80000 kPa, x2 = 0.8787 | 849.39
343.04 K, 100 kPa, x2 = 0.3116 | 864.74
343.04 K, 100 kPa, x2 = 0.8787 | 792.02
343.04 K, 1000 kPa, x2 = 0.3116 | 865.7
343.04 K, 1000 kPa, x2 = 0.8787 | 792.98
343.04 K, 5000 kPa, x2 = 0.8787 | 796.88
343.04 K, 10000 kPa, x2 = 0.7308 | 823.7
343.04 K, 10000 kPa, x2 = 0.8787 | 801.5
343.04 K, 20000 kPa, x2 = 0.7308 | 832.39
343.04 K, 20000 kPa, x2 = 0.8787 | 810.09
343.04 K, 30000 kPa, x2 = 0.7308 | 840.28
343.04 K, 30000 kPa, x2 = 0.8787 | 817.86
343.04 K, 40000 kPa, x2 = 0.7308 | 847.55
343.04 K, 40000 kPa, x2 = 0.8787 | 825.03
343.04 K, 60000 kPa, x2 = 0.7308 | 860.64
343.04 K, 60000 kPa, x2 = 0.8787 | 837.96
343.04 K, 80000 kPa, x2 = 0.7308 | 872.22
343.04 K, 100000 kPa, x2 = 0.7308 | 882.62
343.04 K, 100000 kPa, x2 = 0.8787 | 859.63
343.05 K, 5000 kPa, x2 = 0.3116 | 869.66
343.05 K, 10000 kPa, x2 = 0.3116 | 874.4
343.06 K, 20000 kPa, x2 = 0.3116 | 883.26
343.06 K, 30000 kPa, x2 = 0.3116 | 891.31
343.06 K, 40000 kPa, x2 = 0.3116 | 898.79
343.06 K, 60000 kPa, x2 = 0.3116 | 912.24
343.07 K, 80000 kPa, x2 = 0.3116 | 924.13
343.08 K, 100000 kPa, x2 = 0.3116 | 934.89
362.51 K, 100 kPa, x2 = 0 | 873.45
362.51 K, 1000 kPa, x2 = 0 | 874.46
362.51 K, 5000 kPa, x2 = 0 | 879.02
362.52 K, 10000 kPa, x2 = 0 | 884.41
362.52 K, 20000 kPa, x2 = 0 | 894.33
362.52 K, 30000 kPa, x2 = 0 | 903.29
362.52 K, 40000 kPa, x2 = 0 | 911.53
362.53 K, 60000 kPa, x2 = 0 | 926.3
362.53 K, 80000 kPa, x2 = 0 | 939.26
362.53 K, 100000 kPa, x2 = 0 | 950.89
362.67 K, 100 kPa, x2 = 0.5469 | 819.52
362.68 K, 1000 kPa, x2 = 0.5469 | 820.52
362.68 K, 5000 kPa, x2 = 0.5469 | 825.03
362.68 K, 10000 kPa, x2 = 0.5469 | 830.34
362.69 K, 100 kPa, x2 = 0.8787 | 774.25
362.69 K, 1000 kPa, x2 = 0.8787 | 775.26
362.69 K, 5000 kPa, x2 = 0.8787 | 779.7
362.69 K, 20000 kPa, x2 = 0.5469 | 840.09
362.69 K, 30000 kPa, x2 = 0.5469 | 848.85
362.69 K, 40000 kPa, x2 = 0.5469 | 856.9
362.69 K, 60000 kPa, x2 = 0.5469 | 871.26
362.69 K, 80000 kPa, x2 = 0.5469 | 883.92
362.7 K, 5000 kPa, x2 = 0.3116 | 850.69
362.7 K, 10000 kPa, x2 = 0.8787 | 784.88
362.7 K, 20000 kPa, x2 = 0.8787 | 794.41
362.7 K, 30000 kPa, x2 = 0.8787 | 802.93
362.7 K, 40000 kPa, x2 = 0.8787 | 810.75
362.7 K, 60000 kPa, x2 = 0.8787 | 824.68
362.7 K, 100000 kPa, x2 = 0.5469 | 895.2
362.71 K, 100 kPa, x2 = 0.3116 | 845.12
362.71 K, 100 kPa, x2 = 0.7308 | 795.72
362.71 K, 1000 kPa, x2 = 0.3116 | 846.14
362.71 K, 10000 kPa, x2 = 0.3116 | 856.03
362.71 K, 20000 kPa, x2 = 0.3116 | 865.91
362.71 K, 30000 kPa, x2 = 0.3116 | 874.79
362.71 K, 80000 kPa, x2 = 0.8787 | 836.92
362.71 K, 100000 kPa, x2 = 0.8787 | 847.79
362.72 K, 1000 kPa, x2 = 0.7308 | 796.73
362.72 K, 5000 kPa, x2 = 0.7308 | 801.19
362.72 K, 10000 kPa, x2 = 0.7308 | 806.44
362.72 K, 20000 kPa, x2 = 0.7308 | 816.08
362.72 K, 30000 kPa, x2 = 0.7308 | 824.74
362.72 K, 40000 kPa, x2 = 0.3116 | 882.96
362.72 K, 40000 kPa, x2 = 0.7308 | 832.66
362.72 K, 60000 kPa, x2 = 0.3116 | 897.55
362.72 K, 80000 kPa, x2 = 0.3116 | 910.38
362.72 K, 100000 kPa, x2 = 0.3116 | 921.84
362.73 K, 60000 kPa, x2 = 0.7308 | 846.83
362.73 K, 80000 kPa, x2 = 0.7308 | 859.23
362.73 K, 100000 kPa, x2 = 0.7308 | 870.28

— the NIST ThermoML archive (doi:10.1021/acs.jced.7b00176)
